This is an account of results in publication PMC11410929, “Biochemical and crystallographic studies of L,D-transpeptidase 2 from Mycobacterium tuberculosis with its natural monomer substrate” (Communications Biology, 2024).

In the test the test system is LdtMt2^C354S. Type of test: biochemical, Mycobacterium tuberculosis.
“GlcNAc-MurNAc-L-Ala-D-iGluNH2-m-DAPNH2-D-Ala [Compound 1]”: the “Product formation with LdtMt2^C354S” value was “no product formation was observed”.
Consider “GlcNAc-Muramitol-L-Ala-D-iGluNH2-m-DAPNH2-D-Ala [Compound 2]”, for which the “Product formation with LdtMt2^C354S” value is listed as “no product formation was observed”.
Turning to “lactoyl-L-Ala-D-iGluNH2-m-DAPNH2-D-Ala [Compound 3]”, the “Product formation with LdtMt2^C354S” value is listed as “no product formation was observed”.
